One series has as its system IFNγ production. The experiment in a line: IFNγ inhibition assay in anti-CD3 activated splenocytes. The following applies: for activity at 0.1 µM: Mus musculus, Splenocyte, 72 h, read-out: IFNγ (ratio ± SD).
The conditions of series [1]: low dose of 0.1 µg/kg; cited from earlier work.
The target in series [2] is T1, VDR (Homo sapiens, UniProt P11473).
T1 sequence (P11473 1-427): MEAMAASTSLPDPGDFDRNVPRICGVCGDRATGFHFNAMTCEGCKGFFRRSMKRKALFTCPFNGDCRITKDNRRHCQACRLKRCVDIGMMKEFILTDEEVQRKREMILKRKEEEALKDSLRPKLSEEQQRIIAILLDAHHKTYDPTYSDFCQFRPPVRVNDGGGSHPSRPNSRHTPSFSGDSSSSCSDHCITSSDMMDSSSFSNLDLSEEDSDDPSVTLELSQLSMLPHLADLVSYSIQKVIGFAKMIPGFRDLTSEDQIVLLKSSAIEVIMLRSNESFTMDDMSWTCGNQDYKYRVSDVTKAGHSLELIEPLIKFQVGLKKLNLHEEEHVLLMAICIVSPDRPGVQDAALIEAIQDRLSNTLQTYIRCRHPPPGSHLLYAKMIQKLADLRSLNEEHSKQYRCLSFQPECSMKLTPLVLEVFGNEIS
The experiment in a line: VDRE-luciferase reporter assay in Caco-2 cells. In general terms: Reporter assays use an easily measured gene product as a stand-in for the process of interest.

Series [3] concerns the target T1, VDR. The experiment in a line: VDRE-luciferase reporter assay in HaCaT cells.
In series [4] the target is T1, VDR. The experiment in a line: VDRE-luciferase reporter assay in Jurkat cells.
The next series concerns CYP24A1 gene expression. The experiment in a line: RT-PCR analysis of CYP24A1 expression in HaCaT cells. The format is cell-based. The following applies: 100 nM, 24 h treatment; for fold induction at 0.1 µM: Homo sapiens, read-out: relative mRNA level for CYP24A1 versus vehicle control. As to the method: Figure 7 20S(OH)D3 analogs upregulate the expression of CYP24A1 encoding the vitamin D catabolic enzyme, CYP24A1, with varying efficiencies. […] The mRNA was isolated and the RT-PCR was performed using specific primers for the CYP24A1 gene (see Methods). Data are presented as mean ± SE (n = 3). *p < 0.05, **p < 0.01 and ***p < 0.001 compared with the control.
HaCaT cells were purchased from Thermo Fisher Scientific (Waltham, MA, USA) and were cultured as for the VDRE reporter assay. The RNA from HaCaT keratinocytes treated with secosteroids or from DMSO controls was isolated using the Absolutely RNA Miniprep Kit (Stratagene, La Jolla, CA, USA). Reverse transcription (100 ng RNA/reaction) was performed with the Transcriptor First Strand cDNA Synthesis Kit (Roche Inc., Mannheim, Germany). Real-time PCR was performed using cDNA diluted 10-fold in sterile water and a SYBR Green PCR Master Mix. The primers for both forward and reverse strands for CYP24A1 were designed based on the mouse and rat sequences using Primer Quest software ([…], San Jose, CA, USA). Reactions (in triplicate) were performed at 50 °C for 2 min, 95 °C for 10 min and then 40 cycles of 95 °C for 15 s, 60 °C for 30 s and 72 °C for 30 s. Data were collected and analyzed on a Roche Light Cycler 480. The amount of the final amplified product for each gene was compared and normalized to the amount of β-actin product as a housekeeping gene using a comparative Ct method.

The target in a further series is T2, mouse CYP27B1 (Mus musculus, UniProt O35084).
T2 construct: made in house; host or cells: E. coli
T2 sequence (O35084 1-507): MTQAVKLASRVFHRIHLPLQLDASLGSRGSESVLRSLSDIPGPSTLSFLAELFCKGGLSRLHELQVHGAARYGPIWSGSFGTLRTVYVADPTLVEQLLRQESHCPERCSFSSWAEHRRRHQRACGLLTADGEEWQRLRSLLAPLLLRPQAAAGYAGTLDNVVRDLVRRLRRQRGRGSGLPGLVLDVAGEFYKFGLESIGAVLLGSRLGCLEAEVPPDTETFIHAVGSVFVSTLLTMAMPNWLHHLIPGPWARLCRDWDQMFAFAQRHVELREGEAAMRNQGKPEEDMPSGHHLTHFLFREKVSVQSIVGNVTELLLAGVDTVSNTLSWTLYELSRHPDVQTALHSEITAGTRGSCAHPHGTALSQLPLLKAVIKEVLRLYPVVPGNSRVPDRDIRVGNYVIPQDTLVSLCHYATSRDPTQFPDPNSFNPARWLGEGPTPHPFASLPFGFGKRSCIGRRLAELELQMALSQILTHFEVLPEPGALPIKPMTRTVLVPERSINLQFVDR
The experiment in a line: Metabolism (1α-hydroxylation) of analogs by mouse CYP27B1. The format is in vitro ADME. The following applies: 0.018 mol/mol phospholipid, 0.8 µM mouse CYP27B1, 20 min, 37 °C. As to the method: In order to make the 1α-OH derivatives of the 20S(OH)D3 analogs enzymatically, and to assess their likely capacity to be 1α-hydroxylated in vivo, the ability of mouse CYP27B1 to hydroxylate these metabolites was examined. 25(OH)D3, the major natural substrate for CYP27B1[2],[30], was included for comparison. The 20S(OH)D3 analogs were incorporated into phospholipid vesicles and incubated with CYP27B1, then the extent of their metabolism was determined by HPLC (Table 2). All analogs tested except 33 were metabolized by CYP27B1. In each case only a single metabolite was produced, assumed to be the 1α-OH derivative based on the known high specificity of the enzyme for the 1α-position[24],[30],[31]. […] Metabolism of 4 was almost twice that of 20S(OH)D3 and metabolism of 23 almost three fold. Thus, the modifications to C24 and/or C25 seen in 13, 4 and 23 enhanced their ability to be metabolized by CYP27B1. […] In contrast, the introduction of an amide linkage into the side chain, as in 33, prevented its hydroxylation by CYP27B1.
Rat CYP24A1, mouse CYP27B1 and adrenodoxin and human adrenodoxin reductase were expressed in E. coli and purified as described before[28],[30],[35]. To test metabolism of each analog, they were incorporated into phospholipid vesicles made from dioleoyl phosphatidylcholine and cardiolipin by sonication, as before[24],[28]. The substrates in vesicles (510 µM phospholipid) were incubated at 37 °C with either CYP24A1 (0.14 µM) or CYP27B1 (0.8 µM) in a reconstituted system containing adrenodoxin (15 µM) and adrenodoxin reductase (0.4 µM). Samples from incubations with CYP24A1 were extracted with dichloromethane and analysed by HPLC using a 25 cm Grace Alltima C18 column, as before[27],[28]. Products (except 33) were separated using an acetonitrile on water gradient (45% to 100% for 20 min then 100% acetonitrile for 40 min at a flow rate of 0.5 mL/min). For the more polar 33, the acetonitrile gradient was 30% to 100% acetonitrile for 30 min then 100% acetonitrile for 20 min, at 0.5 mL/min. Products from incubations with CYP27B1 were similarly extracted with dichloromethane and analyzed by reverse phase HPLC using a 15 cm Grace Smart C18 column and an acetonitrile in water gradient (10 min 45% to 100% acetonitrile then 20 min at 100% acetonitrile, at 0.5 mL/min).

Another series has as its target T3, rat CYP24A1 (Rattus norvegicus, UniProt Q09128).
T3 construct: made in house; host or cells: E. coli
T3 sequence (Q09128 36-514): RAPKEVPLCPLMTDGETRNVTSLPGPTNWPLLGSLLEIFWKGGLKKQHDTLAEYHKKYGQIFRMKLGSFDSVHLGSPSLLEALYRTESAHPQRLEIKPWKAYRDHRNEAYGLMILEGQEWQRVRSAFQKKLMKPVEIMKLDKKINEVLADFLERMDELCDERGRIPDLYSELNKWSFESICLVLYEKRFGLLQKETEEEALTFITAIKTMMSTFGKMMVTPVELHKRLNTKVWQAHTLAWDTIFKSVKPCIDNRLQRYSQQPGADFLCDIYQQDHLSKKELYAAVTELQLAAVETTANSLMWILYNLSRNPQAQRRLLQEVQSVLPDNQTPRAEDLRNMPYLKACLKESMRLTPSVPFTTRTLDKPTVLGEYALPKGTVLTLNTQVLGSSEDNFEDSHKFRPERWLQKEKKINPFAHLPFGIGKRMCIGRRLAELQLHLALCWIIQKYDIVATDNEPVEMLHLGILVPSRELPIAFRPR
The experiment in a line: Kinetics of metabolism of analogs in phospholipid vesicles by rat CYP24A1. The class given is in vitro ADME. The following applies: for Km: rat CYP24A1 0.14 µM, phospholipid vesicles, 1 min incubation, ± SE from curve fit. As to the method:
An incubation time of 1 min was chosen to obtain the initial rate based on the time courses (Fig. 6) and previous studies[28],[29].
To test metabolism of each analog, they were incorporated into phospholipid vesicles made from dioleoyl phosphatidylcholine and cardiolipin by sonication, as before[24],[28]. […] Samples from incubations with CYP24A1 were extracted with dichloromethane and analysed by HPLC using a 25 cm Grace Alltima C18 column, as before[27],[28]. […] For the more polar 33, the acetonitrile gradient was 30% to 100% acetonitrile for 30 min then 100% acetonitrile for 20 min, at 0.5 mL/min.

One may read the EC50 as the concentration giving half of the maximal effect.

For `C=C1/C(=C\C=C2/CCC[C@]3(C)[C@@H]([C@H](C)CCCC(C)(C)O)CC[C@@H]23)C[C@@H](O)C[C@@H]1O` [1,25(OH)2D3, 1α,25-dihydroxyvitamin D3, reference compound], the “decrease of IFNγ production level” value in the series with IFNγ production (100 nM) was found to be 60%. In series [1], the calcemic effect entry is recorded as “substantial calcemic effect”.

As to `C=C1/C(=C\C=C2/CCC[C@]3(C)[C@@H]([C@H](C)OCCC(C)(C)O)CC[C@@H]23)C[C@@H](O)C[C@@H]1O` [22-Oxa, reference compound], the 50% effective concentration (EC50) on VDR [2] (read-out: VDRE stimulation (EC50 ± SD, nM) Caco-2, Caco-2 cells, 24 h, NS: no significance) turned out to be 42.5 ± 1.6 nM; at VDR [3] (read-out: VDRE stimulation (EC50 ± SD, nM) HaCaT, HaCaT cells, 24 h, NS: no significance), 40.1 ± 1.5 nM; at VDR [4] (read-out: VDRE stimulation (EC50 ± SD, nM) Jurkat, Jurkat cells, 24 h, NS: no significance), 2.9 ± 0.3 nM. Further, the “decrease of IFNγ production level” value with IFNγ production (100 nM) came to 51%. Further, the “IFNγ (ratio ± SD)” value with IFNγ production (ratio to control (1.000), 100 nM, mouse splenocytes, anti-CD3, 72 h) came out at 0.487 ± 0.017. The “relative mRNA level for CYP24A1 versus vehicle control” value in the series on CYP24A1 gene expression was found to be 77.5 fold.

`C=C1CC[C@H](O)C/C1=C/C=C1\CCC[C@]2(C)[C@@H]([C@H](C)CCCC(C)(C)O)CC[C@@H]12` [25(OH)D3, 25-hydroxyvitamin D3, reference compound]: the “Product (% total secosteroids)” value at mouse CYP27B1 is recorded as 86.0 % total secosteroids.

As to `C=C1CC[C@H](O)C/C1=C/C=C1\CCC[C@@]2(C)[C@H]1CC[C@@H]2[C@@](C)(O)CCC=C(C)C` [compound 4], the EC50 was determined as 580 ± 19.2 nM at VDR [2], 460 ± 36.5 nM on VDR [3] and 439 ± 25.7 nM on VDR [4]. Moreover, on mouse CYP27B1, the “Product (% total secosteroids)” value amounted to 40.6 % total secosteroids. Further, the activity at 0.1 µM with IFNγ production was found to be 83.2 ± 2.3%. For the same molecule, the fold induction at 0.1 µM in the series with CYP24A1 gene expression came out at 32.4. The “kcat, fold lower than for 1,25(OH)2D3” value at rat CYP24A1 (rat CYP24A1) was “approximately 4 fold”. Further, on rat CYP24A1, the Km worked out at 2.0 ± 1.7 mmol/mol PL.

Take `C=C1/C(=C\C=C2/CCC[C@@]3(C)[C@H]2CC[C@@H]3[C@@](C)(O)CCC=C(C)C)C[C@@H](O)C[C@@H]1O` [compound 5]: the figures for the EC50 at VDR [2], at VDR [3] and at VDR [4] were 182 ± 6.1 nM, 198 ± 8.1 nM and 237 ± 5.5 nM, respectively. In addition, the activity at 0.1 µM in the series on IFNγ production worked out at 38.1 ± 1.7%. Besides, the fold induction at 0.1 µM with CYP24A1 gene expression was determined as 149.

As to `C=C1/C(=C\C=C2/CCC[C@@]3(C)[C@H]2CC[C@@H]3[C@@](C)(O)CCOC(C)C)C[C@@H](O)C[C@@H]1O` [compound 14], the figures for the 50% effective concentration (EC50) on VDR [2], at VDR [3] and at VDR [4] were 188 ± 1.9 nM, 226 ± 3.5 nM and 248 ± 5 nM, respectively. In the series with IFNγ production, the activity at 0.1 µM is 62.8 ± 0.8%. Also, in the series with CYP24A1 gene expression, the fold induction at 0.1 µM came out at 2.

For the molecule `C=C1CC[C@H](O)C/C1=C/C=C1\CCC[C@@]2(C)[C@H]1CC[C@@H]2[C@@](C)(O)CCC(F)(F)C(C)C` [compound 23], the “Product (% total secosteroids)” value at mouse CYP27B1 stood at 57.1 % total secosteroids. Also, the activity at 0.1 µM with IFNγ production is 69.8 ± 3.1%. Further, in the series with CYP24A1 gene expression, the fold induction at 0.1 µM was 0.9. Further, the “Km, fold lower than that for 20S(OH)D3” value on rat CYP24A1 (rat CYP24A1) is on record as 3–4 fold. At rat CYP24A1, the Km came to 11.6 ± 3.1 mmol/mol PL.

Consider `C=C1/C(=C\C=C2/CCC[C@@]3(C)[C@H]2CC[C@@H]3[C@@](C)(O)CCC(F)(F)C(C)C)C[C@@H](O)C[C@@H]1O` [compound 24], for which the EC50 on VDR [2] worked out at 236 ± 4.1 nM; on VDR [3], 254 ± 7.9 nM; at VDR [4], 305 ± 4.5 nM. The activity at 0.1 µM in the series with IFNγ production was determined as 56 ± 1%. In addition, the fold induction at 0.1 µM in the series with CYP24A1 gene expression was 2.3.

As to `C=C1CC[C@H](O)C/C1=C/C=C1\CCC[C@]2(C)[C@@H](C(C)(O)CC(=O)NC(C)C)CC[C@@H]12` (stereo partly shown) [compound 33], the “Product (% total secosteroids)” value at mouse CYP27B1 is reported as 0 % total secosteroids. In addition, the activity at 0.1 µM in the series with IFNγ production was 62.8 ± 1.4%. Further, in the series with CYP24A1 gene expression, the fold induction at 0.1 µM stood at 1.2. In addition, on rat CYP24A1 (rat CYP24A1), the “catalytic efficiency, fold lower than for 13” value was 13 fold and the “kcat, fold lower than for 1,25(OH)2D3” value is “approximately 4 fold”. The Km at rat CYP24A1 stood at 15.4 ± 1.7 mmol/mol PL.
